For data set [1], the system named is pancreatic β-cells. In words: Measurements of [Ca2+]i (fura-2) in β-cells upon depolarization with 25 mM KCl. The format is cell-based, mouse. The settings on record: for increase in [Ca2+]i / Ca2+ influx upon depolarization: 10 μg/ml, incubation of β-cells, versus vehicle (0.1% TFA) control. As to the method:
Preparation of Cells Adult mice from a local colony (3) were starved overnight. Pancreatic islets were isolated by a collagenase technique and cell suspensions were prepared as previously described (4, 5). Cells were seeded onto glass coverslips and cultured at 37° C. in a humidified atmosphere of 5% CO2 in air. • Preparation and Purification of Sera: Sera from T1D patients and control subjects were collected, identically sterile-processed and stored frozen at −20° C. until used. The sera were heat-inactivated by incubation at 56° C. for 30 min. Thereafter β-cells were incubated overnight in RPMI 1640 culture medium with 10% of the sera and changes in [Ca^2+]i were recorded, subsequent to depolarization with 25 mM KCl. The five T1D sera that induced an enhanced [Ca^2+]i response were centrifuged and the supernatant was passed through a […] sterile filter. Samples were loaded on Sep-Pak C18 (Waters, Ma) preconditioned with 0.1% TFA. After a wash with 0.1% TFA, proteins were eluted with 60% acetonitrile in 0.1% TFA and thereafter lyophilized. Batches of one milligram of the lyophilized sample were dissolved in 500 μl 0.1% TFA, centrifuged and injected into a RP-HPLC with a Vydac C18 (0.46×25 cm) column (Grace Vydac, Hesperia, Ca). The separation was made using a linear gradient of 20-60% acetonitrile in 0.1% TFA for 40 min at 1 ml/min. Fractions of 1 ml were collected and lyophilized.
Measurements of [Ca^2+]i Cells, attached to coverslips, were pretreated with the different compounds as described in the results and thereafter incubated in basal medium with 2 μM fura-2AM (Molecular Probes, Eugene, Oreg.) for 30 min. The coverslips were mounted as the bottom of an open chamber and cells were perfused with medium. Fluorescence signals were recorded with a SPEX Fluorolog-2 system connected to an inverted Zeiss Axiovert epifluorescence microscope. The excitation and emission wavelengths were 340/380 and 510 nm, respectively. The results are presented as 340/380 excitation ratios, directly representative of [Ca^2+]i (7).

Data set [2] concerns voltage-gated L-type Ca2+-channel. Description: Perforated-patch whole-cell patch clamp of Ca2+ currents in β-cells. The class given is cell-based, mouse. The settings on record: β-cells incubated with 10 μg/ml apoCIII overnight; depolarizations −10 to 10 mV from holding potential −70 mV. How it is done: Patch Clamp Whole-cell Ca^2+ currents were recorded by using the perforated-patch variant of the whole-cell patch-clamp recording technique to eliminate the loss of soluble cytoplasmic components. Electrodes were filled with (in mM): 76 Cs2SO4, 1 MgCl2, 10 KCl, 10 NaCl, and 5 HEPES (pH 7.35), as well as amphotericin B (0.24 mg/ml) to permeabilize the cell membrane and allow low-resistance electrical access without breaking the patch. Pancreatic β-cells were incubated in RPMI 1640 medium with apoCIII (10:g/ml) or vehicle overnight. The cells were bathed in a solution containing (in mM): 138 NaCl, 10 tetraethylammonium chloride, 10 CaCl2, 5.6 KCl, 1.2 MgCl2, 5 HEPES and 3 D-glucose (pH 7.4). Whole-cell currents induced by voltage pulses (from a holding potential of −70 mV to several clamping potentials from −60 to 50 mV in 10 mV increments, 100 ms, 0.5 Hz) were filtered at 1 kHz and recorded. All recordings were made with an Axopatch 200 amplifier (Axon Instruments, Foster City, Calif.) at room temperature (about 22° C.). Acquisition and analysis of data were done using the software program pCLAMP6 (Axon Instruments, Foster City, Calif.).

Data set [3] concerns RINm5F cells. Description: Flow cytometric analysis of cell death (Annexin V / propidium iodide). The settings on record: 40 μg/ml apoCIII added to culture medium with 10% control serum, 36 h. The format is cell-based. As to the method:
Quantification of apoCIII Sera were collected and prepared as described above. The relative amounts of apoCIII in T1D serum and control serum, respectively were evaluated by comparisons of the peak area corresponding to apoCIII in the second RP-HPLC. • Flow Cytometric Analysis of Cell Death RINm5F cells were cultured for 36 h in the presence of 10% control serum, control serum and 40 μg/ml apoCIII or T1D serum with or without 100 or 200 μg/ml anti-apoCIII. The whole cell population was collected and stained with EGFP-conjugated Annexin V and propidium iodide (PI) (BD PharMingen) and analyzed on a FACscan using CELLQuest acquisition software (Becton Dickinson, Immunocytometry System). FACS gating, based on forward and side scatter, was used to exclude cellular debris and autofluorescence and typically 10 000 cells were selected for analysis.

Data set [4] concerns Ca2+-channel. In words: Immunoblot experiments for direct interaction with the Ca2+-channel. The format is binding. The settings on record: immunoblot (data not shown).

Entries after “also recorded” stand apart in the source; their conditions may differ.

Take apolipoprotein CIII [apoCIII]: the results for the “increase in [Ca2+]i / Ca2+ influx upon depolarization” value in data set [1] and in data set [1] (listed as ApoCIII) were “stimulate Ca^2+ influx” and “increase in [Ca^2+]i”, respectively. Also, the “effect on [Ca2+]i” value in data set [1] (apoCIII 1, 3 and 6 μg/ml in culture medium) is “did not see any effects”; in data set [1] (apoCIII 10-50 μg/ml in culture medium) it was “responses”. Also, the “Ca2+-channel currents” value in data set [2] is “larger Ca^2+-channel currents than control cells; also recorded: activation of the voltage-gated L-type Ca^2+-channel”. The cell death result is “increased cell death” in data set [3] and “β-cell death” in data set [3] (listed as ApoCIII). For the same substance, in data set [4], the “direct interaction with the Ca2+-channel” value is recorded as “not revealed a direct interaction”.
